These results are taken from patent US20040166079A1, “N-Lauroyl amino acid composition for slimming the human body” (priority 2003, published 2004).

In one assay the target is T1, human pancreatic lipase (Homo sapiens, UniProt P16233).
T1 construct: purchased SIGMA LIPASE-PS kit
T1 sequence (P16233 17-465): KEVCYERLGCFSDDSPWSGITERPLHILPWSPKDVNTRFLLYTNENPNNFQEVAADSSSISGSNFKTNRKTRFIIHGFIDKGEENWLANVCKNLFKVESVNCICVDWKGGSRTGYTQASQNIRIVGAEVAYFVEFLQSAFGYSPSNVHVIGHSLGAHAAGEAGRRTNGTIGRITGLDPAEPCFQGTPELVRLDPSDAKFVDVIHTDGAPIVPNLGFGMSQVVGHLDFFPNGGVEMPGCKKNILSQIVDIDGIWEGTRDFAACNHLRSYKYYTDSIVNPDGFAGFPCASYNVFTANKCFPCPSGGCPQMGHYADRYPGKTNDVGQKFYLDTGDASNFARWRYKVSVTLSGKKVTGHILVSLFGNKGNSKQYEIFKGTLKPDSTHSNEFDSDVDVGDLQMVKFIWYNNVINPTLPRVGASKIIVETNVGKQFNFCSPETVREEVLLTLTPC
T1 sequence (P02703 23-112 partner): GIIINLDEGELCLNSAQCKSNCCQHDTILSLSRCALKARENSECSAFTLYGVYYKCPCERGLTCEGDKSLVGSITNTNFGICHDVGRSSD
Nature of the assay: Measurement of the activity of lipase (LIPASE-PS kit, absorbance 550 nm). The class given is biochemical. As to conditions: relative to the control, 8 minutes at 37° C. The protocol:
Lipase is an enzyme which degrades triglycerides to fatty acids and glycerol according to the following reaction scheme: [drawing 5]
Inside the adipocytes, the free fatty acids can thus be removed from storage. […] It is based on an enzymatic test, using a purified enzyme.
A human pancreatic lipase (SIGMA, LIPASE-PS™ kit) is incubated in the presence of a diglyceride and a reaction system to produce a coloured quinone diimine which can be assayed by spectrophotometry (550 nm). The measurement of the absorbance at 550 nm is directly proportional to the activity of the lipase.
All the […] are provided in the LIPASE-PS™ kit (SIGMA) . The product is incubated with the reaction mixture for 8 minutes at 37° C.
The reaction system used is composed of:
The results are presented in the following table as a percentage activation of the lipase relative to the control.

In a further assay the target is T2, human recombinant MMP-2 (Homo sapiens, UniProt P08253).
T2 construct: purchased CALBIOCHEM PF023
T2 sequence (P08253 110-660): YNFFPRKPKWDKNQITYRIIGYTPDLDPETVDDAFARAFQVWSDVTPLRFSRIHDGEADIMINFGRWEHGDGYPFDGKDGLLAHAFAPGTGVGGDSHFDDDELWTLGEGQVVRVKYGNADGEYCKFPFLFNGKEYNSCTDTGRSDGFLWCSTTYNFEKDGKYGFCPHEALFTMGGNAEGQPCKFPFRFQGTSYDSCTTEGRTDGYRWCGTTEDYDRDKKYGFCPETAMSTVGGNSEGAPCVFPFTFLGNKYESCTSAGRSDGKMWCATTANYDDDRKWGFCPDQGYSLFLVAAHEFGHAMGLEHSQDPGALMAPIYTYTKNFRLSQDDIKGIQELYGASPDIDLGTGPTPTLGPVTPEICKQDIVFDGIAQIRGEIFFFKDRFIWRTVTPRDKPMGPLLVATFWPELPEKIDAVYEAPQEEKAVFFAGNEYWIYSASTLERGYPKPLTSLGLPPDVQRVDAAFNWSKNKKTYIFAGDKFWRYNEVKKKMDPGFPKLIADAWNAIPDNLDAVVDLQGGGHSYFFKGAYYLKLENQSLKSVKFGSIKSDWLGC
Nature of the assay: Measurement of the activity of metalloproteinase MMP-2 (DQ-gelatin fluorescence). The class given is biochemical. The note with it: incubation concentration 0.1 % DE; relative to the control. The method, then:
The objective of this test is to evaluate the inhibitory capacity of a product on the enzymatic activity of MMP-2 and MMP-9. This test is based on an enzymatic reaction between purified MMP-2 or MMP-9 and a specific substrate containing a chromophore. The degradation of the chromogenic substrate by the enzyme leads to the production of fluorescence monitored by fluorimetry.
(ii)—A human recombinant MMP-2 (CALBIOCHEM, PF023) is incubated, at 0.1 μg/ml, in the presence of the product and the chromogenic substrate, DQ-gelatin conjugated with fluorescein (MOLECULAR PROBE, D12054) at 10 μg/ml. The reaction mixture is incubated overnight at room temperature, protected from light. The quantity of DQ-gelatin degraded is measured by fluorescence (Ex: 355 nm; Em: 460 nm).
The reactivity of the enzymatic system is systematically monitored for the measurement of the effect of a metalloproteinase inhibitor, 1,10-phenanthroline. The results are presented in the following table, as a percentage inhibition of the enzymatic activity of MMP-2 and MMP-9 relative to the control.

`Cn1c(=O)c2c(ncn2C)n(C)c1=O` [Caffeine, 1,3,7-trimethyl-xanthine]: the “Percentage activation of the lipase” value on human pancreatic lipase (incubation concentration 0.01 % DE) is 0%; at human pancreatic lipase (incubation concentration 0.1 % DE) it was 10%. The MMP-2 inhibiting effect on human recombinant MMP-2 was determined as 0%.
